Data published in ChEMBL document CHEMBL5465560, “Selectivity Literature for EUbOPEN Chemogenomic Library” (2024).

How the values were obtained:
[1] = target: Receptor-interacting serine/threonine-protein kinase 3 (Homo sapiens) (UniProt Q9Y572); experiment: Selectivity interaction (Kinase panel (KiNativ target engagement assay in Jurkat cells)) EUB0001635a RIPK3; type: cell-based; details: Selectivity number of off-targets 0.0, Selectivity number of targets 233.0, Source Knowledge https://www.sciencedirect.com/science/article/pii/S2451945619300674?via%3Dihub, at 1 µM
[2] = target: Mitogen-activated protein kinase 7 (Homo sapiens) (UniProt Q13164); experiment: Selectivity interaction (Rxn Biology Kinase assay) EUB0001632a MAPK7; details: at 10 µM
[3] = target: Tyrosine-protein kinase receptor Tie-1 (Homo sapiens) (UniProt P35590); experiment: Selectivity interaction (KinomeScan (DiscoverX)) EUB0000666a TIE1; details: at 10 µM
[4] = target: CDK4/Cyclin D3 (Homo sapiens) (UniProt P11802+P30281); details: at 10 µM
[5] = target: Homeodomain-interacting protein kinase 2 (Homo sapiens, UniProt Q9H2X6); details: at 10 µM
Insulin receptor [6] = target: T1, Insulin receptor (Homo sapiens, UniProt P06213); experiment: (§1) Selectivity interaction (ProQinase) EUB0000171b INSR
Insulin receptor [7] = target: T1, Insulin receptor; experiment: as §1; details: at 5 µM
[8] = target: T2, Serine/threonine-protein kinase TAO2 (Homo sapiens) (UniProt Q9UL54); experiment: Selectivity interaction (SelectScreen profiling (Invitrogen)) EUB0000607a TAOK2; details: at 2 µM
T2 sequence (whole entry): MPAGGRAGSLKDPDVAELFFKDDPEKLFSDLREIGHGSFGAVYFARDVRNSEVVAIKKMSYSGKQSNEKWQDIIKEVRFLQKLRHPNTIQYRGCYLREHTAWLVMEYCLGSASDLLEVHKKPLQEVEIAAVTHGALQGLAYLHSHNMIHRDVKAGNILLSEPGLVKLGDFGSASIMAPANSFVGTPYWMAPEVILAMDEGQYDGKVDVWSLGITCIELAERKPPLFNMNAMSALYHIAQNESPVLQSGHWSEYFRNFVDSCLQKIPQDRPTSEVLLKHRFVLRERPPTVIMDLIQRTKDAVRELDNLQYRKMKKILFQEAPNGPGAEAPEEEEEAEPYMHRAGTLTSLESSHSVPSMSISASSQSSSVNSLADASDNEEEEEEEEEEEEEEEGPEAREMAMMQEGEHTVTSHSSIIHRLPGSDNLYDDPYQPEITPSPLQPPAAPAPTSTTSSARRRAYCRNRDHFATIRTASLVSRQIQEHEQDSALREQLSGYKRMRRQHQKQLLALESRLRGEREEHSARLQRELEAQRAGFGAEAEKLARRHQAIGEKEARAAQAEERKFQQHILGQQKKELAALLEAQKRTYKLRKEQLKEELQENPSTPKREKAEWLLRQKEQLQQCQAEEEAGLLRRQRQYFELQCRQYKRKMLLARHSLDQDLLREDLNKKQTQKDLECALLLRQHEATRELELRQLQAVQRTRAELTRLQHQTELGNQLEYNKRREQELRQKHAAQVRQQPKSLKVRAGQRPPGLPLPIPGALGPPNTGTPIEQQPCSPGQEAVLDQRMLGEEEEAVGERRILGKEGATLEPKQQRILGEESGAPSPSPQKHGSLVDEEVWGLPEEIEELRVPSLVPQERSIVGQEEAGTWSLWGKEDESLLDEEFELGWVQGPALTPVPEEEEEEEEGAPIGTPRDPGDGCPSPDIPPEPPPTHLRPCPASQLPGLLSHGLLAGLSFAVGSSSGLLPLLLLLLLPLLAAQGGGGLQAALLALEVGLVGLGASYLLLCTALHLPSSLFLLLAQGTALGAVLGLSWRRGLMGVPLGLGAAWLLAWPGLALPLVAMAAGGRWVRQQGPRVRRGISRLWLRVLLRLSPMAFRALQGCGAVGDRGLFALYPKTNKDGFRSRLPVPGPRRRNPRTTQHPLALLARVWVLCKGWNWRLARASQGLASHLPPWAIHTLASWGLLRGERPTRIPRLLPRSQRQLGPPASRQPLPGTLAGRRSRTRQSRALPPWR

[9] = target: Protein-tyrosine kinase 2-beta (Homo sapiens) (UniProt Q14289); experiment: Selectivity interaction (KinomeScan (DiscoverX)) EUB0000607a PTK2B; details: at 10 µM
[10] = target: Phosphatidylinositol 4-kinase beta (Homo sapiens, UniProt Q9UBF8); experiment: Selectivity interaction (Kinase panel (Invitrogen)) EUB0000639a PI4KB; details: at 200 nM
[11] = target: Ribosomal protein S6 kinase alpha-5 (Homo sapiens) (UniProt O75582); experiment: Selectivity interaction (ActivX KiNativ screen (kinase selectivity in THP-1 cell lysates)) EUB0000639a RPS6KA5; type: subcellular; details: lysate
[12] = target: Transient receptor potential cation channel subfamily M member 6 (Homo sapiens) (UniProt Q9BX84); experiment: Selectivity interaction (KinomeScan (DiscoverX)) EUB0000655a TRPM6; details: at 10 µM
[13] = target: Serine/threonine-protein kinase PRP4 homolog (Homo sapiens) (UniProt Q13523); experiment: Selectivity interaction (KinomeScan (DiscoverX)) EUB0000655a PRPF4; details: at 10 µM
[14] = target: T3, Homeodomain-interacting protein kinase 4 (Homo sapiens) (UniProt Q8NE63); experiment: Selectivity interaction (KinomeScan (DiscoverX)) EUB0000655a HIPK4; details: at 10 µM
T3 sequence (whole entry): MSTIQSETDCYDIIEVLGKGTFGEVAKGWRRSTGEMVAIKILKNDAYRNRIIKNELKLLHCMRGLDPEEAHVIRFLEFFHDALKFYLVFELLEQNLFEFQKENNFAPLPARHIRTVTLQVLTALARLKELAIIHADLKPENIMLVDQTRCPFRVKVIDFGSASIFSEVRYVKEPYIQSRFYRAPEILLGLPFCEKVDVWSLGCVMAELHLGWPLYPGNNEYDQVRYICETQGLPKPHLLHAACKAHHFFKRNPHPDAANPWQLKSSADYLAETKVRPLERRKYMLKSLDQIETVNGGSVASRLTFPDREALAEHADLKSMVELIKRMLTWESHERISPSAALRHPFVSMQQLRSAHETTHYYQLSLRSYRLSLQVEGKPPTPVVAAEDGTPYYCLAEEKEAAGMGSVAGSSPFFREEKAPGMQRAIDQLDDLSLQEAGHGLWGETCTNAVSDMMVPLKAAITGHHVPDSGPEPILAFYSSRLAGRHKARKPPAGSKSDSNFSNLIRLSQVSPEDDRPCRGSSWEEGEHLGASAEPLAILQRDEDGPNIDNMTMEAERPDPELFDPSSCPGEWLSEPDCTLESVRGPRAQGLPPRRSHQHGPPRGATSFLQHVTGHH

Sequence of Ribosomal protein S6 kinase alpha-5 (Homo sapiens) (O75582 whole entry, looked up): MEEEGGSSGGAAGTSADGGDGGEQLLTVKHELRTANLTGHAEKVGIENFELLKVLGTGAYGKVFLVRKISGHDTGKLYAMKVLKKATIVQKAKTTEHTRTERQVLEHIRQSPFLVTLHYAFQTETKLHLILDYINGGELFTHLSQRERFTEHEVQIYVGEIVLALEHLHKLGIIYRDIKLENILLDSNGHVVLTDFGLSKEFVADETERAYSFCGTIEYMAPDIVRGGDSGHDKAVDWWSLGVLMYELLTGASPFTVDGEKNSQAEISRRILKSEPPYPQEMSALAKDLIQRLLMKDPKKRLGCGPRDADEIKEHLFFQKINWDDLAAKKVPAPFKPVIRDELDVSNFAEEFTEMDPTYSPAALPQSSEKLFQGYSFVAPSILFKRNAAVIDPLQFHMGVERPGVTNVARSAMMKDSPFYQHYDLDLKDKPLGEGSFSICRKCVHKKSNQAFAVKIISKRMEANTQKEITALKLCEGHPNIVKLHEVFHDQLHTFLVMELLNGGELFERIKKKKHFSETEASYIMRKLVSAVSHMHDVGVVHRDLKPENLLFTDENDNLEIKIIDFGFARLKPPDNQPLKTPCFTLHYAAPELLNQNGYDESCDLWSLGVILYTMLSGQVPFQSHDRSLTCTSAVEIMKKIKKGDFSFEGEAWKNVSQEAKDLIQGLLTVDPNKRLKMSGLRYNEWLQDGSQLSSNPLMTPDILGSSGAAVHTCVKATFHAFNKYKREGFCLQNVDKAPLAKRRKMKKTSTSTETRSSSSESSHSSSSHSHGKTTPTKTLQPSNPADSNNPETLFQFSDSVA
T1 sequence (P06213 28-758 limits assumed): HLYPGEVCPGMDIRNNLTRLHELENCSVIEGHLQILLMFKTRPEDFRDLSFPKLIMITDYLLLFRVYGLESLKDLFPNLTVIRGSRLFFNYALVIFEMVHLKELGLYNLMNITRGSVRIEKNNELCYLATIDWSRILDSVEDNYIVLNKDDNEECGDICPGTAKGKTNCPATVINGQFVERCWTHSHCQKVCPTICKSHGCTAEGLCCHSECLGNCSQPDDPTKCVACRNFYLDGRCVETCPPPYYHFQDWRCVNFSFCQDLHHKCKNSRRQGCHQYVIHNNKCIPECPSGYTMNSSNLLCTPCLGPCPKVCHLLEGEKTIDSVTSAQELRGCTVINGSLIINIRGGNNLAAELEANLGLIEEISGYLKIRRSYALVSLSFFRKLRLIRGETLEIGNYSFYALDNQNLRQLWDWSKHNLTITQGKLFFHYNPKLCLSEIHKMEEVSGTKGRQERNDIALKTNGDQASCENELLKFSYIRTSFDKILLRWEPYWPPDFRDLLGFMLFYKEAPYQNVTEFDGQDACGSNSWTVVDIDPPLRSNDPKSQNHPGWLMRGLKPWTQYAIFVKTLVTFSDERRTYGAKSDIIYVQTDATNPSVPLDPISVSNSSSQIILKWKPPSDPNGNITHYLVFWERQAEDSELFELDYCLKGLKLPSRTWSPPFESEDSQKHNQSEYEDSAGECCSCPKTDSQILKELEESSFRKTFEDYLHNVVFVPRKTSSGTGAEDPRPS
T1 sequence (P06213 763-1382 limits assumed): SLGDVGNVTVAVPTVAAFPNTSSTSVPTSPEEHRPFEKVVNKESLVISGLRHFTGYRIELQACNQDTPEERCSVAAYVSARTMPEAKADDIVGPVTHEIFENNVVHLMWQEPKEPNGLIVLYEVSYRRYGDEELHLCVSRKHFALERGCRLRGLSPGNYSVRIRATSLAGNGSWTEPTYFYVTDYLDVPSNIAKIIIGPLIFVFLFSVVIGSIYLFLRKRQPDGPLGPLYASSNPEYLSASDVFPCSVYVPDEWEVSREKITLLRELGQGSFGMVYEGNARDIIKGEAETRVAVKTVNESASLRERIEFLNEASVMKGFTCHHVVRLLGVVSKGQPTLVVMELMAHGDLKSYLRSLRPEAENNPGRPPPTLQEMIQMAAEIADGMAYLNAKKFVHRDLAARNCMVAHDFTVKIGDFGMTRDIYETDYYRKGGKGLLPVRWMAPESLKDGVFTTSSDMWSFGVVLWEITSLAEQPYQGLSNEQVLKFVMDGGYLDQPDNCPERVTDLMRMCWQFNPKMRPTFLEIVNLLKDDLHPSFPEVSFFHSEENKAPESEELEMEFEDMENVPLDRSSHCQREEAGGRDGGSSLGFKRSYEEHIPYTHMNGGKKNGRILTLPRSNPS
Sequence of Transient receptor potential cation channel subfamily M member 6 (Homo sapiens) (Q9BX84 whole entry): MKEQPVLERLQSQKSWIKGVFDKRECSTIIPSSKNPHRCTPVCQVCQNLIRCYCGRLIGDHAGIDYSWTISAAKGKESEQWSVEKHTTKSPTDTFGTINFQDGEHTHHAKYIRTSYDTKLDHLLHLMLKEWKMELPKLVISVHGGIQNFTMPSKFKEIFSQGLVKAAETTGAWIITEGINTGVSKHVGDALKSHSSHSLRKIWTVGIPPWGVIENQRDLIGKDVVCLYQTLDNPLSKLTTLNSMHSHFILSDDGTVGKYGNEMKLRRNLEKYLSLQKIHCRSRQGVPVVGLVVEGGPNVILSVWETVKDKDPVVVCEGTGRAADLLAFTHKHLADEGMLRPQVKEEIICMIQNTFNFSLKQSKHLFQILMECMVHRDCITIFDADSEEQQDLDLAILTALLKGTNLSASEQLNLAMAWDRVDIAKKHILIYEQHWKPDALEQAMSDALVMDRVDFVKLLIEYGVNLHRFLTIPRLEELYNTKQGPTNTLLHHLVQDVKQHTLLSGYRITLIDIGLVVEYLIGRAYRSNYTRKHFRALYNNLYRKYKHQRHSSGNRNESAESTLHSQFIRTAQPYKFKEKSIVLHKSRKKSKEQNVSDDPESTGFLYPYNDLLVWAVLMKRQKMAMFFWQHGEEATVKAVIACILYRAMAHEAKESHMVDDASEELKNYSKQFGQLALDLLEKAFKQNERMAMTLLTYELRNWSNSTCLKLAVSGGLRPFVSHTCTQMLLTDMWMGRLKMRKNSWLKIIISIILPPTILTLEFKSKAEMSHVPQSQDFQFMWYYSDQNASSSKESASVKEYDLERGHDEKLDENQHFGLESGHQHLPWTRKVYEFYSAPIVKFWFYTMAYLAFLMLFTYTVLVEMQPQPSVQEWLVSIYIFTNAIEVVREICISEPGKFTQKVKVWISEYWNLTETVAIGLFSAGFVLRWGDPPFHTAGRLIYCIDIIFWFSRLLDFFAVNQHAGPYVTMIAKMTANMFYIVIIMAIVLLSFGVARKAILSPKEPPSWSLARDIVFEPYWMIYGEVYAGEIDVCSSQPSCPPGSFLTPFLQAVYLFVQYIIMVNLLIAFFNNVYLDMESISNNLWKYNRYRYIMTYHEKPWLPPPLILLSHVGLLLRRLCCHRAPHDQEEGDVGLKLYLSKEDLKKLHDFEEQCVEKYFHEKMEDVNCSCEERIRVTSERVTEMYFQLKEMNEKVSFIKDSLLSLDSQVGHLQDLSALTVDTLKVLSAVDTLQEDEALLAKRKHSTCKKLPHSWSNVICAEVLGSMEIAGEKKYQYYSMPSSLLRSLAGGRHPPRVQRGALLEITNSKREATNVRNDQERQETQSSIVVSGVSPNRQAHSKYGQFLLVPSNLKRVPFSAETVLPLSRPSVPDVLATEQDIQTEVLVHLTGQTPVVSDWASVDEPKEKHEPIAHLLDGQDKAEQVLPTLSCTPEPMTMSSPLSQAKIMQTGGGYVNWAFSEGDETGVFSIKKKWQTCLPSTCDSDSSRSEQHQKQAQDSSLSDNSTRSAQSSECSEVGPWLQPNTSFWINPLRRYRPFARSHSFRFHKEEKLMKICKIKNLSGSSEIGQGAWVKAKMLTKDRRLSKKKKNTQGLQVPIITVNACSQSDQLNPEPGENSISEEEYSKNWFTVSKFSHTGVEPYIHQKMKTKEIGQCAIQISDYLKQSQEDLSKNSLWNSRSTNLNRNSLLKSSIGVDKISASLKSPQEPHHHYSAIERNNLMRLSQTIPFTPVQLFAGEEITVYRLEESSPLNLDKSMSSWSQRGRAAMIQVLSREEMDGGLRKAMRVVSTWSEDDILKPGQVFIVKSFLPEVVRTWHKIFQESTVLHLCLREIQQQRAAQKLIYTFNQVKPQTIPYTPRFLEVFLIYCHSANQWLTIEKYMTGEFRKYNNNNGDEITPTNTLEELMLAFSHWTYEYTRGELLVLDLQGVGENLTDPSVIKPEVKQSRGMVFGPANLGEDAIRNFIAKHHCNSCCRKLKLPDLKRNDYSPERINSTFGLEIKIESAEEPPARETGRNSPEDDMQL
Sequence of Mitogen-activated protein kinase 7 (Homo sapiens) (Q13164 2-816 limits assumed): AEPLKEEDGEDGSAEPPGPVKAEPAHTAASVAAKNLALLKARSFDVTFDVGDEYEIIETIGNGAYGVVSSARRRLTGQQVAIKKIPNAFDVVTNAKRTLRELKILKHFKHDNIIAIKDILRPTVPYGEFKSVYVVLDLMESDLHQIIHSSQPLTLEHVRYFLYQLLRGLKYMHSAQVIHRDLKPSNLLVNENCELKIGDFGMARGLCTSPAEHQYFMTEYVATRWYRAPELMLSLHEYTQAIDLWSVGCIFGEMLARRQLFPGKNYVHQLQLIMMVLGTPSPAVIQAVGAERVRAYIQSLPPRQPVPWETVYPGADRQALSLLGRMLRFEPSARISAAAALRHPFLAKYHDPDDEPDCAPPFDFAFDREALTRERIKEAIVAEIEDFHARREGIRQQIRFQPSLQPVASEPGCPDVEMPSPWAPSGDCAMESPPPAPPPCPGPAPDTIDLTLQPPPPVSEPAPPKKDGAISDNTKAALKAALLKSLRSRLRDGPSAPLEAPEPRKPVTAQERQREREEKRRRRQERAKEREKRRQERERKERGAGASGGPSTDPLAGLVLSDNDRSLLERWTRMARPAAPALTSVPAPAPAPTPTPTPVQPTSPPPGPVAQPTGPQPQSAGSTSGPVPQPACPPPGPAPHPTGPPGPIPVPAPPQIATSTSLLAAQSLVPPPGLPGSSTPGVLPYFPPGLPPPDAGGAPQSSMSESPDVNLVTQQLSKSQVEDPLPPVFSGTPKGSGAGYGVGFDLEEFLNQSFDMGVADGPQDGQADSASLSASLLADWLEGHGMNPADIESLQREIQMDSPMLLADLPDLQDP

Structure (SMILES): C=CC(=O)Nc1ccc(C(=O)Nc2[nH]nc3c2CN(C(=O)N[C@H](CN(C)C)c2ccccc2)C3(C)C)cc1
- % of engagement [1]: -0.8%

Structure (SMILES): Cn1cc(-n2cnc3c(NCc4nc5cc(Cl)c(Cl)cc5[nH]4)nc(N4CCOCC4)nc32)cn1
- % of inhibition [2]: -42.4%

Structure (SMILES): O=C(NOC[C@H](O)CO)c1ccc(F)c(F)c1Nc1ccc(I)cc1F
- % of control [3]: 54%

Structure (SMILES): Cc1cc([C@@H](C)Nc2ccccc2C(=O)O)c2nc(N3CCOCC3)cc(=O)n2c1 [AZD-6482]
- % of control [4]: 100%
- % of control [5]: 79%

Structure (SMILES): C=CC(=O)Nc1cccc(C(=O)Nc2ccc(Nc3cc(-c4[nH]c(SC)nc4C)ccn3)cc2)c1
- % of control (Insulin receptor [6]; at 1 µM): 91%
- % of control (Insulin receptor [6]; at 5 µM): 83%
- % of control (Insulin receptor [7]): 72%

Structure (SMILES): CNC(=O)Nc1ccc(-c2nc(N3CC4CCC(C3)O4)c3cnn(C4CCC5(CC4)OCCO5)c3n2)cc1
- % of inhibition [8]: 3%
- % of control [9]: 100%

Structure (SMILES): CC[C@@H]1[C@H](F)C(=O)N[C@@H]1COc1nccc2cc(C(N)=O)c(OC)cc12 [ZIMLOVISERTIB]
- % of inhibition [10]: -0.901%
- % of inhibition ([11]; at 0.01 µM): 2.2%
- % of inhibition ([11]; at 0.04 µM): -1%
- % of inhibition ([11]; at 0.2 µM): -6.1%
- % of inhibition ([11]; at 1 µM): -9.7%
- % of inhibition ([11]; at 5 µM): -27.5%

Structure (SMILES): CN(C)CCOc1ccc(-c2nc(-c3ccncc3)c(-c3ccc4c(c3)CC/C4=N\O)[nH]2)cc1
- % of control [12]: 100%
- % of control [13]: 84%
- % of control [14]: 18%
